Data taken from patent US10034898B2, “Methods and systems for treatment of inflammatory diseases with nitric oxide” (priority 2012, dated 2018).

Legend:
[1] = system: micro-capillary blood flow to skin; experiment: Laser Doppler capillary blood flow study, Example 5 (closed Hilltop chamber on forearm); type: in vivo, humans; settings: applied to the skin at 1/10% in alcohol
Method: This example illustrates delivery of nitric oxide formulations similar to those discussed herein in humans. In these studies, laser Doppler studies were performed on three human female subjects. […] The formulations used produce positive, almost immediate results when applied to the skin which, in these studies, was manifested by vasodilatation of the cutaneous vascular system.
While nitric oxide has many physiological effects, the purpose of these studies was to measure physiological effects that would be relatively easy to determine, and which would be noninvasive. […] Nitric oxide is capable of […] the capillary bed, and thus, laser Doppler was selected.
The formulation used in these studies contained nitric oxide dispersed in a lipid matrix. […] This provided a stable measuring device as determined by multiple normal evaluations of the capillary blood flow without treatment of nitric oxide.
A known positive control, methyl nicotinate, was applied to the skin at a concentration of 1/10% in alcohol. […] The laser Doppler device accurately measured these parameters.
In these studies, the participants were healthy females aged 30 to 55 years. They were in good health as determined by the medical history and were not taking any prescription medications. All study participants read and signed the informed consent statement prior to any study procedures being performed. […]

[2] = system: capillary circulation of the skin; experiment: Laser Doppler circulation study in five human subjects, Example 7; type: in vivo; settings: positive control formulation containing 0.1% methyl nicotinate, vs untreated skin
From the text: This example illustrates delivery of nitric oxide formulations to five human subjects, using procedures and formulations similar to those discussed in Example 5. Each person served as their own control for the testing. A Moor Instruments Laser Doppler was used to determine circulation. […] The formulations used produce positive, almost immediate results when applied to the skin which, in these studies, was manifested by vasodilatation of the cutaneous vascular system.
For each subject, the following creams were applied: a negative control formulation (containing no NO), 0.010 gram of a 10,000 ppm NO formulation, 0.020 gram of a 10,000 ppm NO formulation, and a positive control formulation containing 0.1% methyl nicotinate. The formulations were prepared using procedures similar to those discussed in Example 1.

COC(=O)c1cccnc1 [methyl nicotinate]
laser Doppler response of positive control [1]: rapid response typical of the vasodilator | vasodilatation [2]: vasodilatation was observed
